Where two headings read alike, the source gives them in different places.
Columns and labels:
EGFR del19/T790M/C797S = EGFR del19/T790M/C797S (Homo sapiens, UniProt P00533, C797S/DEL746-750/T790M); assay: Biochemical EGFR kinase assay (Lance Ultra TR-FRET), triple mutant del19/T790M/C797S
Summary of the method: (§1)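 In this biochemical assay, phosphorylation after a one-hour room-temperature reaction was detected with europium-labelled anti-phosphopeptide antibody at 2 nM final concentration.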

EGFR L858R/T790M/C797S = EGFR L858R/T790M/C797S (Homo sapiens, UniProt P00533, C797S/L858R/T790M); assay: Biochemical EGFR kinase assay (Lance Ultra TR-FRET), triple mutant L858R/T790M/C797S
Summary of the method: as §1

EGFR del19/C797S = EGFR del19/C797S (Homo sapiens, UniProt P00533, C797S/DEL746-750); assay: Biochemical EGFR kinase assay (Lance Ultra TR-FRET), double mutant del19/C797S
Summary of the method: as §1

EGFR L858R/C797S = EGFR L858R/C797S (Homo sapiens, UniProt P00533, C797S/L858R); assay: Biochemical EGFR kinase assay (Lance Ultra TR-FRET), double mutant L858R/C797S
Summary of the method: as §1

EGFR wildtype = EGFR wildtype (Homo sapiens, UniProt P00533); assay: Biochemical EGFR kinase assay (Lance Ultra TR-FRET), wildtype
Summary of the method: as §1

[1] = ATP at Km, read-out: IC50 del19/T790M/C797S, Km ATP
[2] = IC50 del19/T790M/C797S, 100 μM ATP
[3] = ATP at Km, read-out: IC50 L858R/T790M/C797S, Km ATP
[4] = IC50 L858R/T790M/C797S, 100 μM ATP
[5] = ATP at Km, read-out: IC50 del19/C797S, Km ATP
[6] = ATP at Km, read-out: IC50 L858R/C797S, Km ATP
[7] = ATP at Km, read-out: IC50 WT, Km ATP

Chain of EGFR wildtype (P00533 25-1210): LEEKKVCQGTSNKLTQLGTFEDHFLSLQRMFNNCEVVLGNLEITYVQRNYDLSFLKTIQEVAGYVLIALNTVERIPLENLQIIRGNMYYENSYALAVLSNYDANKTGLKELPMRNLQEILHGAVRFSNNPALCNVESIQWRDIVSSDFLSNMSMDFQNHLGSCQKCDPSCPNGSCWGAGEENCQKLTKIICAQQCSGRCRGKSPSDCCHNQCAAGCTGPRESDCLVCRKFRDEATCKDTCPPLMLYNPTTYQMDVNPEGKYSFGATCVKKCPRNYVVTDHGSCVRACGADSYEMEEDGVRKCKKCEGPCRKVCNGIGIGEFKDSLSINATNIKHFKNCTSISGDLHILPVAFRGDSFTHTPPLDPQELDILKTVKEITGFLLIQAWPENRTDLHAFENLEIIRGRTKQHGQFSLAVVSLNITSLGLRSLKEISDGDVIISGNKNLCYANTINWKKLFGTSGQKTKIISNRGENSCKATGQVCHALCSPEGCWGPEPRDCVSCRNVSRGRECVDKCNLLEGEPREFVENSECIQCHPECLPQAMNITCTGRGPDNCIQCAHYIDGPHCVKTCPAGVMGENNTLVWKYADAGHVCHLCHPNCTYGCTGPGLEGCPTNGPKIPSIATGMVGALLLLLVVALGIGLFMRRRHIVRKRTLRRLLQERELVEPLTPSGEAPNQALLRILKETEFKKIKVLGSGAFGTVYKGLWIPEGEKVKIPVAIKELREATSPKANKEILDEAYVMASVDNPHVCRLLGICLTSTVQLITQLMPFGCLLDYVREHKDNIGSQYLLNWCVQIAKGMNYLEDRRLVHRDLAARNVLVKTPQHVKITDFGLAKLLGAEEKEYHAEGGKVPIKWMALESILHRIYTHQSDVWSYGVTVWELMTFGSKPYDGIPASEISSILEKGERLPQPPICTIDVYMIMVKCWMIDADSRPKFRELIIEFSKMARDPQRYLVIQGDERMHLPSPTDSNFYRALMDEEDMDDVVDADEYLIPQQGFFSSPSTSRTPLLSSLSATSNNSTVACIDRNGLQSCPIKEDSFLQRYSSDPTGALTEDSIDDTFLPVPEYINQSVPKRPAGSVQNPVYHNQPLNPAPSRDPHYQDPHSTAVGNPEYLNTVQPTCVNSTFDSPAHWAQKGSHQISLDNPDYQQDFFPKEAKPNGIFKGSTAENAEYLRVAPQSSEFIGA
Chain of EGFR del19/T790M/C797S (P00533 with tags, fused parts or gaps DEL746-750/T790M/C797S): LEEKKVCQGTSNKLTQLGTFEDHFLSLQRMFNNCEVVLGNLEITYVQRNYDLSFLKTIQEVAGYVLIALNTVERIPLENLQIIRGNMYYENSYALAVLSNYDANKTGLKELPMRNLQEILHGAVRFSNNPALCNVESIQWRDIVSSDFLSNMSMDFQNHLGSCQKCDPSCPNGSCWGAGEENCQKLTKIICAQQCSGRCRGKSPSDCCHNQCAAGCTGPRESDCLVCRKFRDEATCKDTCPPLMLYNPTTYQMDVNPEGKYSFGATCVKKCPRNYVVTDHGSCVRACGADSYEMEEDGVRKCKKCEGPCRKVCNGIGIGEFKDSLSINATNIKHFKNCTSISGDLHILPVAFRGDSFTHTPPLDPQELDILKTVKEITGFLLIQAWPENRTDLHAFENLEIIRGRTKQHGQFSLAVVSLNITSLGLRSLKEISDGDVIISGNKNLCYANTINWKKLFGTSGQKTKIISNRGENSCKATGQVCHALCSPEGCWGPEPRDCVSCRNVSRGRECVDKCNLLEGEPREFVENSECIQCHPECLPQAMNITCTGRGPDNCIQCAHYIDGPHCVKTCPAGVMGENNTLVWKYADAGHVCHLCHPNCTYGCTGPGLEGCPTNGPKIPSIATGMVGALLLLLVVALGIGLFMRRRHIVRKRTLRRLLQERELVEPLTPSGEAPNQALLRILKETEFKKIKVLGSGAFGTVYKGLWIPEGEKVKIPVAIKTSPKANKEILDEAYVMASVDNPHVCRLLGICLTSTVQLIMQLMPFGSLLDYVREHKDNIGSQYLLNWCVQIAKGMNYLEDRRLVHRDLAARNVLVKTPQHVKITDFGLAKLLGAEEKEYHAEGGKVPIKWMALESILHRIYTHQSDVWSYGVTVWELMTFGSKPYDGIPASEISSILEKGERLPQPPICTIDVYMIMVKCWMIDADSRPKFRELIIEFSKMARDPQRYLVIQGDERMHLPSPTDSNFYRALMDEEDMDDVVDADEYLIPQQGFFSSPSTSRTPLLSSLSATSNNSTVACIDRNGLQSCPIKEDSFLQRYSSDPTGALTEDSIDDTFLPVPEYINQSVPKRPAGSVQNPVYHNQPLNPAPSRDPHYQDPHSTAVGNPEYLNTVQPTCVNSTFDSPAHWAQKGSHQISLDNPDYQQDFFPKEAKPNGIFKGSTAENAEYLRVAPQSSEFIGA
Chain of EGFR L858R/T790M/C797S (P00533 25-1210 T790M/C797S/L858R): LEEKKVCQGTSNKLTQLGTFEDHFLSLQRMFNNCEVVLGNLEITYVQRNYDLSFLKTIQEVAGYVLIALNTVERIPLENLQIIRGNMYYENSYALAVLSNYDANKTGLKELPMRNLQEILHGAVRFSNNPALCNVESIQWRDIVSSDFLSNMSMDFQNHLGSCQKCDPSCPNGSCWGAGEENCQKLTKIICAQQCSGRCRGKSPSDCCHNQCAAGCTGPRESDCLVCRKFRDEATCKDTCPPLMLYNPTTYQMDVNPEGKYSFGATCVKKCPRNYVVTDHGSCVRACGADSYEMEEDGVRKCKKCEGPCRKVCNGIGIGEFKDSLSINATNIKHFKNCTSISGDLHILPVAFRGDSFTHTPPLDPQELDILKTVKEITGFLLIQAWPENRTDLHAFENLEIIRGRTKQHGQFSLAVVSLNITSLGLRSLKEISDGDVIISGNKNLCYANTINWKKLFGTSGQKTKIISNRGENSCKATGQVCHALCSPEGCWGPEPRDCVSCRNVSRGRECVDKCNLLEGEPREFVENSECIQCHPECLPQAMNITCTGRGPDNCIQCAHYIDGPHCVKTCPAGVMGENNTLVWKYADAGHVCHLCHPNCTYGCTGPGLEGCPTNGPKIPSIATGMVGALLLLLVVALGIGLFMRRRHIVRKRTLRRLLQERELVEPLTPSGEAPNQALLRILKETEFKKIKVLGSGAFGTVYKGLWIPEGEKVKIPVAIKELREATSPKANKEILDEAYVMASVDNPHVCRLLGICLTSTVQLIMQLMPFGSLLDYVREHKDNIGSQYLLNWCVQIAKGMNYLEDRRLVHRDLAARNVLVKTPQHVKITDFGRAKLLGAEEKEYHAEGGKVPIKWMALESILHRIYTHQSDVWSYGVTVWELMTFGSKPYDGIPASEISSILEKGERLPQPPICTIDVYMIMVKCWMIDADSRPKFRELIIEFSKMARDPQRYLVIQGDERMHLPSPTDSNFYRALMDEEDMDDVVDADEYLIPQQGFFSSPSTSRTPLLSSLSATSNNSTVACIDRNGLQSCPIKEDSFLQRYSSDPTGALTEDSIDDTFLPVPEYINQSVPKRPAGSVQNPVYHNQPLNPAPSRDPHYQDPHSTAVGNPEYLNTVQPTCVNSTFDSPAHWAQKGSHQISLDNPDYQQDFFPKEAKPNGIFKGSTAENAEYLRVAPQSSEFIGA
Chain of EGFR L858R/C797S (P00533 25-1210 C797S/L858R): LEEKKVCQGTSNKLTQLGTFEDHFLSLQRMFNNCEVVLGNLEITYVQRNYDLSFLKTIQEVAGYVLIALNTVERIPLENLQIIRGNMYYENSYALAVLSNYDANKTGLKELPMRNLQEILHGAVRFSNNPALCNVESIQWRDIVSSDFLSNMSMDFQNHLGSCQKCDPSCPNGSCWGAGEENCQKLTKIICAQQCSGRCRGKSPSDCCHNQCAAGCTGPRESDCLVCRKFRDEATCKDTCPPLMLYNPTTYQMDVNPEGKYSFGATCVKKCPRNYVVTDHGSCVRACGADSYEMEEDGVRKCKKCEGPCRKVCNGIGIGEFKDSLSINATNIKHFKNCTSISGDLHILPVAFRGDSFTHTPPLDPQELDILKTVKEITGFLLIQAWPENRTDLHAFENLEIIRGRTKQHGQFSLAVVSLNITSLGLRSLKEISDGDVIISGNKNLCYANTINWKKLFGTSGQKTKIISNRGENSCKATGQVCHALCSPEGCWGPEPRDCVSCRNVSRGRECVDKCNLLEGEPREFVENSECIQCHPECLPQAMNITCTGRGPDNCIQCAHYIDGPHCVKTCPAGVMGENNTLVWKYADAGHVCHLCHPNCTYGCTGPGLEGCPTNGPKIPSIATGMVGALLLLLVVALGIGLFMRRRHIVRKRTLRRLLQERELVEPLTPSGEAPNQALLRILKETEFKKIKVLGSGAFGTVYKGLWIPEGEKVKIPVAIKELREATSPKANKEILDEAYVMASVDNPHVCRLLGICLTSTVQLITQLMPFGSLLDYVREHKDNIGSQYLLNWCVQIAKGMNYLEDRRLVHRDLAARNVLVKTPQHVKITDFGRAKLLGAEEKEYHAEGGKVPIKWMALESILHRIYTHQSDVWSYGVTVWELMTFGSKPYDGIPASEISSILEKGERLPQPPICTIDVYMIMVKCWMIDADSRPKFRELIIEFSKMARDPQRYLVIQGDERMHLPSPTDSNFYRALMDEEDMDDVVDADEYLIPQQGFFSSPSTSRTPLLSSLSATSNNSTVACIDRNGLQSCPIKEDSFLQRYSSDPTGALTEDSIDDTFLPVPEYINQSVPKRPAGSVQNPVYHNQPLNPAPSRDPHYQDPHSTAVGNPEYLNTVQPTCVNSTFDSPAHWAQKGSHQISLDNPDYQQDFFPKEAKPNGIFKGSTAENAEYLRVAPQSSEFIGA

Row | SMILES | IC50 (EGFR del19/T790M/C797S; [1]) [nM] | IC50 (EGFR del19/T790M/C797S; [2]) [nM] | IC50 (EGFR L858R/T790M/C797S; [3]) [nM] | IC50 (EGFR L858R/T790M/C797S; [4]) [nM] | IC50 (EGFR del19/C797S; [5]) [nM] | IC50 (EGFR del19/C797S; IC50 del19/C797S, 100 μM ATP) [nM] | IC50 (EGFR L858R/C797S; [6]) [nM] | IC50 (EGFR L858R/C797S; IC50 L858R/C797S, 100 μM ATP) [nM] | IC50 (EGFR wildtype; IC50 WT, 100 μM ATP) [nM] | IC50 (EGFR wildtype; [7]) [nM]
1 | CN1CCC(Oc2cccc(-c3cnc(Nc4ccnc(-c5cnn(S(=O)(=O)C6CC6)c5)n4)cc3N[C@H]3CC[C@@](C)(O)CC3)n2)CC1 [Example 286, (1s,4s)-4-((6′-((2-(1-(Cyclopropylsulfonyl)-1H-pyrazol-4-yl)pyrimidin-4-yl)amino)-6-((1-methylpiperidin-4-yl)oxy)-[2,3′-bipyridin]-4′-yl)amino)-1-methylcyclohexan-1-ol] | 0.2 | 0.3 | 0.1 | 0.3 | 0.3 | 0.3 | 0.1 | 2.5 | 735 | 
2 | CN(C)CCOc1ccnc(-c2cnc(Nc3ccnc(-c4cnn(S(=O)(=O)C5CC5)c4)n3)cc2N[C@H]2CC[C@@](C)(O)CC2)c1 [Example 287, (1s,4s)-4-((6′-((2-(1-(Cyclopropylsulfonyl)-1H-pyrazol-4-yl)pyrimidin-4-yl)amino)-4-(2-(dimethylamino)ethoxy)-[2,3′-bipyridin]-4′-yl)amino)-1-methylcyclohexan-1-ol] | 0.2 | 0.3 | 0.1 | 0.1 | 0.4 | 1 | 0.8 | 44 | 5140 | 3
3 | CC1(O)CCC(Nc2cc(Nc3ccnc(-c4cnn(S(=O)(=O)C5CC5)c4)n3)ncc2-c2cc(CN3CC(O)C3)ccn2)CC1 (centres unmarked) [Example 288, 1-((6′-((2-(1-(Cyclopropylsulfonyl)-1H-pyrazol-4-yl)pyrimidin-4-yl)amino)-4′-(((1s,4s)-4-hydroxy-4-methylcyclohexyl)amino)-[2,3′-bipyridin]-4-yl)methyl) azetidin-3-ol] | 0.2 | 0.3 | 0.1 | 0.2 | 0.2 | 0.5 | 0.3 | 6.8 | 2000 | 0.7
4 | CN1CC(Oc2ccc(-c3cnc(Nc4ccnc(-c5cnn(S(=O)(=O)C6CC6)c5)n4)cc3N[C@H]3CC[C@@](C)(O)CC3)nc2)C1 [Example 289, (1s,4s)-4-((6′-((2-(1-(Cyclopropylsulfonyl)-1H-pyrazol-4-yl)pyrimidin-4-yl)amino)-5-((1-methylazetidin-3-yl)oxy)-[2,3′-bipyridin]-4′-yl)amino)-1-methylcyclohexan-1-ol] | 0.2 | 0.2 | 0.1 | 0.1 | 0.1 | 0.2 | 0.1 | 0.8 | 206 | 0.3
5 | C[C@]1(O)CC[C@@H](Nc2cc(Nc3ccnc(-c4cnn(S(=O)(=O)C5CC5)c4)n3)ncc2-c2ccc(OCCN3CCC3)cn2)CC1 [Example 290, (1s,4s)-4-((5-(2-(Azetidin-1-yl)ethoxy)-6′-((2-(1-(cyclopropylsulfonyl)-1H-pyrazol-4-yl)pyrimidin-4-yl)amino)-[2,3′-bipyridin]-4′-yl)amino)-1-methylcyclohexan-1-ol] | 0.4 | 0.4 | 0.1 | 0.2 | 0.2 | 0.3 | 0.1 | 0.6 | 118 | 0.5
6 | CC(C)(F)c1ccc(-c2cnc(Nc3ccnc(-c4cnn(S(=O)(=O)C5CC5)c4)n3)cc2N[C@H]2CC[C@@](C)(O)CC2)nc1 [Example 291, (1s,4s)-4-((6′-((2-(1-(Cyclopropylsulfonyl)-1H-pyrazol-4-yl)pyrimidin-4-yl)amino)-5-(2-fluoropropan-2-yl)-[2,3′-bipyridin]-4′-yl)amino)-1-methylcyclohexan-1-ol] | 0.5 |  | 0.5 | 1 |  | 4.9 | 2.3 | 2.8 | > 10000 | 3.7
7 | CC(F)(F)c1ccc(-c2cnc(Nc3ccnc(-c4cnn(S(=O)(=O)C5CC5)c4)n3)cc2N[C@H]2CC[C@@](C)(O)CC2)nc1 [Example 292, (1s,4s)-4-((6′-((2-(1-(Cyclopropylsulfonyl)-1H-pyrazol-4-yl)pyrimidin-4-yl)amino)-5-(1,1-difluoroethyl)-[2,3′-bipyridin]-4′-yl)amino)-1-methylcyclohexan-1-ol] | 0.6 | 2.6 | 0.6 | 1.1 | 1.4 | 9.8 | 4.4 | 19.1 | 5170 | 8.9
8 | C[C@]1(O)CC[C@@H](Nc2cc(Nc3ccnc(-c4cnn(S(=O)(=O)C5CC5)c4)n3)ncc2-c2cccc(CC(F)(F)F)n2)CC1 [Example 293, (1s,4s)-4-((6′-((2-(1-(Cyclopropylsulfonyl)-1H-pyrazol-4-yl)pyrimidin-4-yl)amino)-6-(2,2,2-trifluoroethyl)-[2,3′-bipyridin]-4′-yl)amino)-1-methylcyclohexan-1-ol] | 0.7 | 3.4 | 0.7 |  | 9.6 | 16.2 | 15.4 | 63 | 1540 | 138
9 | CC(C)Nc1cc(Nc2ccnc(-c3cnn(S(=O)(=O)C4CC4)c3)n2)ncc1-c1ccc(C(O)C(F)(F)F)cn1 (centres unmarked) [Example 294, 1-(6′-((2-(1-(Cyclopropylsulfonyl)-1H-pyrazol-4-yl)pyrimidin-4-yl)amino)-4′-(isopropylamino)-[2,3′-bipyridin]-5-yl)-2,2,2-trifluoroethan-1-ol] | 9.8 |  | 2.3 |  | 60.8 |  | 38.5 |  |  | 28
10 | CN(C)S(=O)(=O)n1cc(-c2nccc(Nc3cc(N[C@H]4CC[C@@](C)(O)CC4)c(-c4ccc(CC(F)(F)F)cn4)cn3)n2)cn1 [Example 296, 4-(4-((4′-(((1s,4s)-4-Hydroxy-4-methylcyclohexyl)amino)-5-(2,2,2-trifluoroethyl)-[2,3′-bipyridin]-6′-yl)amino)pyrimidin-2-yl)-N,N-dimethyl-1H-pyrazole-1-sulfonamide] | 4.5 |  | 3.7 |  | 17.6 |  | 10.1 |  |  | 89.8
11 | CN(C)S(=O)(=O)n1cc(-c2nccc(Nc3cc(NC4CCC(C)(O)CC4)c(-c4ccc(C(O)C(F)(F)F)cn4)cn3)n2)cn1 (centres unmarked) [Example 297, 4-(4-((4′-(((1s,4s)-4-Hydroxy-4-methylcyclohexyl)amino)-5-(2,2,2-trifluoro-1-hydroxyethyl)-[2,3′-bipyridin]-6′-yl)amino)pyrimidin-2-yl)-N,N-dimethyl-1H-pyrazole-1-sulfonamide] | 1.6 |  | 1.4 |  | 4 |  | 3 |  |  | 39.9
12 | CN(C)S(=O)(=O)n1cc(-c2nccc(Nc3cc(NC4CCC(C)(O)CC4)c(-c4ccc(C(C)(O)C(F)(F)F)cn4)cn3)n2)cn1 (centres unmarked) [Example 298, 4-(4-((4′-(((1s,4s)-4-Hydroxy-4-methylcyclohexyl)amino)-5-(1,1,1-trifluoro-2-hydroxypropan-2-yl)-[2,3′-bipyridin]-6′-yl)amino)pyrimidin-2-yl)-N,N-dimethyl-1H-pyrazole-1-sulfonamide] | 1.8 |  | 1.1 |  | 2.9 |  | 1.7 |  |  | 15.4
13 | C[C@]1(O)CC[C@@H](Nc2cc(Nc3nc(-c4cnn(S(=O)(=O)C5CC5)c4)ncc3F)ncc2-c2ccc(CC(F)(F)F)cn2)CC1 [Example 299, (1s,4s)-4-((6′-((2-(1-(Cyclopropylsulfonyl)-1H-pyrazol-4-yl)-5-fluoropyrimidin-4-yl)amino)-5-(2,2,2-trifluoroethyl)-[2,3′-bipyridin]-4′-yl)amino)-1-methylcyclohexan-1-ol] | 5.7 |  | 3.2 |  | 28.6 |  | 8.5 |  |  | 245
